{"source": "patent US20250017937A1", "about": "“MGLU2/3 ANTAGONISTS FOR THE TREATMENT OF INTELLECTUAL DISABILITIES” (Hoffmann-La Roche Inc., priority 2014, published 2025)", "test_system": "Shank3 KO mice", "assay": "Water maze cognition experiment (acquisition and reversal learning) in Shank3 KO mice", "assay_type": "in vivo, mouse", "settings": "female SHANK3-KO mice", "from_the_text": "Example 1: Cognition experiment in Shank3 KO mice an animal model of ASD with reported impairment in cognition\n11-12 female wild-type and Shank3 KO mice on C57B16/J background were from F. Hoffmann La Roche breeding facilities, and were 10 weeks old at the beginning of the study. 20male Nlgn3 knockout rats and 20 littermate wild-type controls (background: Sprague Dawley) were from F. Hoffmann La Roche breeding facilities. All rats and mice were group-housed in holding rooms at controlled temperature (20-22° C.), humidity (55-65%) and 12-h light/dark cycle (lights on 06:00 h). All animals were allowed ad libitum access to food and water. The experimental procedures used in the present investigation received prior approval from the City of Basel Cantonal Animal Protection Committee based on adherence to federal and local regulations.\nII-a were synthesized at F. Hoffmann-La Roche Ltd. according to procedures known in the art^12. Both compounds were prepared as a suspension in 0.3% Tween 80 v/v 0.9% saline and administered per os by gavage using an administration volume of 5 ml/kg (rat) or 10 ml/kg (mouse). […] All doses reported in this study are expressed as free base equivalents.\nOn days 1-7, II-a was administered once daily per os with 10 mg/kg (WT: n=11: KO: n=12) or vehicle (WT: n=12; KO: n=12), 3 h prior to testing from day 1 of water maze until the last day of testing. The dose of II-a was reduced to 7 mg/kg on days 8-16. Water maze was conducted on days 1-12 of treatment, with 2 days for “shaping” prior to the start of drug treatment. The grooming/digging test was conducted on days 15-16. […]\nData analysis: The mean latency, path length, and swim speed were assessed during acquisition and reversal learning. In the probe trial, the percent time spent searching for the previous platform in each quadrant (left, platform, right, and opposite), and the number of platform crossings were measured."}
{"molecule": "Cc1cc(-c2ccc(C(F)(F)F)cc2)cc(-c2cccc(-c3cccc(S(N)(=O)=O)c3)n2)n1", "note": "[II-a]", "values": [{"measurement": "latency to reach platform (mean latency during acquisition and reversal learning)", "setting": "FIGS. 1 and 2, C57BL/6j background, 10 weeks old, II-a 10 mg/kg po chronic vs Veh", "result": "some improvement in latency to reach platform in KO mice only"}, {"measurement": "path length during acquisition and reversal learning", "setting": "FIGS. 1 and 2, II-a 10 mg/kg po chronic vs Veh", "result": "significant block 7"}, {"measurement": "memory impairment in the KO-Veh compared to WT-Veh (water maze)", "setting": "FIGS. 3 and 4, II-a 10 mg/kg po chronic, repeated measures analysis of variance", "result": "improvement"}]}
